Each structure is given as a SMILES string. Where only a bound is given, the exact number is not on record here.

The assay concerns β-catenin-TCF-mediated reporter transcription activity in Colo 205 cells. As to the kind of experiment: Colo 205 reporter assay (TCF/LEF luciferase). Type of assay: cell-based. Particulars: Homo sapiens, COLO 205, 5 h, Colo 205 TCF/LEF luciferase reporter, five hours after addition of compound; read-out: TCF reporter Colo205 IC50. In outline:
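Luciferase signal from a TCF/LEF-driven reporter, stably integrated in Colo 205 colon cancer cells, was measured 5 h after compound addition.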

As usually defined, the IC50 is the point on the concentration scale where inhibition reaches its midpoint. On to `Cc1nc(NCc2cnn(Cc3ccc(C(F)(F)F)nc3)c2)nc2c1NC(=O)C1(COC1)N2C` [Compound 600, 4′,8′-dimethyl-2′-(((1-((6-(trifluoromethyl)pyridin-3-yl)methyl)-1H-pyrazol-4-yl)methyl)amino)-5′,8′-dihydro-6′H-spiro[oxetane-3,7′-pteridin]-6′-one], for which the IC50 lay in the range of 1 to 5 µM.

Take `Cc1nc(NCc2ccn(Cc3ccc(C(F)(F)F)nc3)n2)nc2c1NC(=O)C1(CC(F)(F)C1)N2C` [Compound 601, 3,3-difluoro-4′,8′-dimethyl-2′-(((1-((6-(trifluoromethyl)pyridin-3-yl)methyl)-1H-pyrazol-3-yl)methyl)amino)-5′,8′-dihydro-6′H-spiro[cyclobutane-1,7′-pteridin]-6′-one]: the IC50 is 0.3 to 1 µM.

Take `COc1cc(F)ccc1CN1CC(Nc2nc(C)c3c(n2)N(C)[C@@H](C(C)C)C(=O)N3)C1` [Compound 603, (S)-2-((1-(4-fluoro-2-methoxybenzyl)azetidin-3-yl)amino)-7-isopropyl-4,8-dimethyl-7,8-dihydropteridin-6(5H)-one]: the 50% inhibitory concentration (IC50) was 0.3 to 1 µM.

For `Cc1nc(NCc2cnn(Cc3ccc(C(F)(F)F)nc3)c2)nc2c1NC(=O)[C@H](CO)N2C` [Compound 604, (S)-7-(hydroxymethyl)-4,8-dimethyl-2-(((1-((6-(trifluoromethyl)pyridin-3-yl)methyl)-1H-pyrazol-4-yl)methyl)amino)-7,8-dihydropteridin-6(5H)-one], the IC50 lay in the range of 1 to 5 µM.

On to `Cc1nc(NC2CN(C(=O)c3cocn3)C2)nc2c1NC(=O)[C@H](C(C)C)N2C` [Compound 605, (S)-7-isopropyl-4,8-dimethyl-2-((1-(oxazole-4-carbonyl)azetidin-3-yl)amino)-7,8-dihydropteridin-6(5H)-one], for which the 50% inhibitory concentration (IC50) was not below 5 µM.

As to `Cc1nc(NC2CN(C(=O)CC3CC(F)(F)C3)C2)nc2c1NC(=O)[C@H](C(C)C)N2C` [Compound 606, (S)-2-((1-(2-(3,3-difluorocyclobutyl)acetyl)azetidin-3-yl)amino)-7-isopropyl-4,8-dimethyl-7,8-dihydropteridin-6(5H)-one], the IC50 lay within 0.3 to 1 µM.

For the molecule `Cc1nc(NC2CN(C(=O)c3ccc(OC(F)(F)F)nc3)C2)nc2c1NC(=O)[C@H](C(C)C)N2C` [Compound 607, (S)-7-isopropyl-4,8-dimethyl-2-((1-(6-(trifluoromethoxy)nicotinoyl)azetidin-3-yl)amino)-7,8-dihydropteridin-6(5H)-one], the half-maximal inhibitory concentration (IC50) was less than 0.3 µM.

On to `Cc1nc(NCc2cnn(Cc3ccnc(Cl)c3)c2)nc2c1NC(=O)[C@H](C1CC1)N2C` [Compound 608, (S)-2-(((1-((2-chloropyridin-4-yl)methyl)-1H-pyrazol-4-yl)methyl)amino)-7-cyclopropyl-4,8-dimethyl-7,8-dihydropteridin-6(5H)-one], for which the 50% inhibitory concentration (IC50) was less than 0.3 µM.

For the molecule `Cc1nc(NC2CN(C(=O)c3cn(C)nc3C(F)(F)F)C2)nc2c1NC(=O)[C@H](C(C)C)N2C` [Compound 609, (S)-7-isopropyl-4,8-dimethyl-2-((1-(1-methyl-3-(trifluoromethyl)-1H-pyrazole-4-carbonyl)azetidin-3-yl)amino)-7,8-dihydropteridin-6(5H)-one], the IC50 lay within 1 to 5 µM.

Turning to `Cc1nc(C(=O)N2CC(Nc3nc(C)c4c(n3)N(C)[C@@H](C(C)C)C(=O)N4)C2)co1` [Compound 610, (S)-7-isopropyl-4,8-dimethyl-2-((1-(2-methyloxazole-4-carbonyl)azetidin-3-yl)amino)-7,8-dihydropteridin-6(5H)-one], the IC50 was not below 5 µM.

Take `Cc1nc(NC2CN(C(=O)C3CCCCO3)C2)nc2c1NC(=O)[C@H](C(C)C)N2C` (stereo partly drawn) [Compound 611, (7S)-7-isopropyl-4,8-dimethyl-2-((1-(tetrahydro-2H-pyran-2-carbonyl)azetidin-3-yl)amino)-7,8-dihydropteridin-6(5H)-one]: the half-inhibitory concentration (IC50) was not below 5 µM.

Consider `Cc1nc(NC2CN(C(=O)COc3ccccc3C(F)(F)F)C2)nc2c1NC(=O)[C@H](C(C)C)N2C` [Compound 612, (S)-7-isopropyl-4,8-dimethyl-2-((1-(2-(2-(trifluoromethyl)phenoxy)acetyl)azetidin-3-yl)amino)-7,8-dihydropteridin-6(5H)-one], for which the half-maximal inhibitory concentration (IC50) was less than 0.3 µM.

Turning to `Cc1nc(NC2CN(C(=O)c3csc(C(F)(F)F)n3)C2)nc2c1NC(=O)[C@H](C(C)C)N2C` [Compound 613, (S)-7-isopropyl-4,8-dimethyl-2-((1-(2-(trifluoromethyl)thiazole-4-carbonyl)azetidin-3-yl)amino)-7,8-dihydropteridin-6(5H)-one], the half-inhibitory concentration (IC50) fell in the range of 0.3 to 1 µM.

For the molecule `Cc1nc(NC2CN(C(=O)c3ccn(C(F)F)n3)C2)nc2c1NC(=O)[C@H](C(C)C)N2C` [Compound 614, (S)-2-((1-(1-(difluoromethyl)-1H-pyrazole-3-carbonyl)azetidin-3-yl)amino)-7-isopropyl-4,8-dimethyl-7,8-dihydropteridin-6(5H)-one], the half-maximal inhibitory concentration (IC50) lay within 1 to 5 µM.

Turning to `Cc1nc(NC2CN(C(=O)c3ccc(OCC(F)(F)F)nc3)C2)nc2c1NC(=O)[C@H](C(C)C)N2C` [Compound 615, (S)-7-isopropyl-4,8-dimethyl-2-((1-(6-(2,2,2-trifluoroethoxy)nicotinoyl)azetidin-3-yl)amino)-7,8-dihydropteridin-6(5H)-one], the IC50 lay in the range of 0.3 to 1 µM.

Consider `Cc1nc(NC2CN(C(=O)Cc3ccc(F)cc3F)C2)nc2c1NC(=O)[C@H](C(C)C)N2C` [Compound 616, (S)-2-((1-(2-(2,4-difluorophenyl)acetyl)azetidin-3-yl)amino)-7-isopropyl-4,8-dimethyl-7,8-dihydropteridin-6(5H)-one], for which the half-maximal inhibitory concentration (IC50) was in the range of 0.3 to 1 µM.

In the case of `Cc1nc(NC2CN(C(=O)c3cnon3)C2)nc2c1NC(=O)[C@H](C(C)C)N2C` [Compound 617, (S)-2-((1-(1,2,5-oxadiazole-3-carbonyl)azetidin-3-yl)amino)-7-isopropyl-4,8-dimethyl-7,8-dihydropteridin-6(5H)-one], the IC50 is not below 5 µM.

`Cc1nc(NC2CN(C(=O)Cc3ccc(F)cc3)C2)nc2c1NC(=O)[C@H](C(C)C)N2C` [Compound 618, (S)-2-((1-(2-(4-fluorophenyl)acetyl)azetidin-3-yl)amino)-7-isopropyl-4,8-dimethyl-7,8-dihydropteridin-6(5H)-one]: the IC50 was 0.3 to 1 µM.

Turning to `Cc1nc(NC2CN(C(=O)c3cc(C(C)C)on3)C2)nc2c1NC(=O)[C@H](C(C)C)N2C` [Compound 619, (S)-7-isopropyl-2-((1-(5-isopropylisoxazole-3-carbonyl)azetidin-3-yl)amino)-4,8-dimethyl-7,8-dihydropteridin-6(5H)-one], the IC50 lay within 1 to 5 µM.

For the molecule `Cc1cc(C(=O)N2CC(Nc3nc(C)c4c(n3)N(C)[C@@H](C(C)C)C(=O)N4)C2)on1` [Compound 620, (S)-7-isopropyl-4,8-dimethyl-2-((1-(3-methylisoxazole-5-carbonyl)azetidin-3-yl)amino)-7,8-dihydropteridin-6(5H)-one], the IC50 is not below 5 µM.

In the case of `Cc1nc(NC2CN(C(=O)c3ccc(C(F)(F)F)o3)C2)nc2c1NC(=O)[C@H](C(C)C)N2C` [Compound 621, (S)-7-isopropyl-4,8-dimethyl-2-((1-(5-(trifluoromethyl)furan-2-carbonyl)azetidin-3-yl)amino)-7,8-dihydropteridin-6(5H)-one], the IC50 fell in the range of 0.3 to 1 µM.

As for `Cc1nc(NC2CN(C(=O)c3ccc(C(F)(F)F)cc3)C2)nc2c1NC(=O)[C@H](C(C)C)N2C` [Compound 622, (S)-7-isopropyl-4,8-dimethyl-2-((1-(4-(trifluoromethyl)benzoyl)azetidin-3-yl)amino)-7,8-dihydropteridin-6(5H)-one], the concentration for half-maximal inhibition (IC50) is less than 0.3 µM.

Regarding `Cc1nc(NC2CN(C(=O)CC3CC4CCC3C4)C2)nc2c1NC(=O)[C@H](C(C)C)N2C` (stereo partly drawn) [Compound 623, (7S)-2-((1-(2-(bicyclo[2.2.1]heptan-2-yl)acetyl)azetidin-3-yl)amino)-7-isopropyl-4,8-dimethyl-7,8-dihydropteridin-6(5H)-one], the IC50 is 0.3 to 1 µM.

With `Cc1nc(N[C@H]2CCc3c2cnn3Cc2ccc(C(F)(F)F)nc2)nc2c1NC(=O)[C@H](C)N2C` [Compound 624, (7S)-4,7,8-trimethyl-2-(((S)-1-((6-(trifluoromethyl)pyridin-3-yl)methyl)-1,4,5,6-tetrahydrocyclopenta[c]pyrazol-4-yl)amino)-7,8-dihydropteridin-6(5H)-one], the IC50 was not below 5 µM.

Turning to `Cc1nc(N[C@@H]2CCc3c2cnn3Cc2ccc(C(F)(F)F)nc2)nc2c1NC(=O)[C@H](C)N2C` [Compound 625, (7S)-4,7,8-trimethyl-2-(((R)-1-((6-(trifluoromethyl)pyridin-3-yl)methyl)-1,4,5,6-tetrahydrocyclopenta[c]pyrazol-4-yl)amino)-7,8-dihydropteridin-6(5H)-one], the half-maximal inhibitory concentration (IC50) was not below 5 µM.

Regarding `Cc1nc(NC2CN(C(=O)Cc3ccc(F)c(F)c3)C2)nc2c1NC(=O)[C@H](C(C)C)N2C` [Compound 626, (S)-2-((1-(2-(3,4-difluorophenyl)acetyl)azetidin-3-yl)amino)-7-isopropyl-4,8-dimethyl-7,8-dihydropteridin-6(5H)-one], the IC50 was less than 0.3 µM.

With `Cc1nc(NC2CN(C(=O)[C@H](C)c3ccccc3)C2)nc2c1NC(=O)[C@H](C(C)C)N2C` [Compound 627, (S)-7-isopropyl-4,8-dimethyl-2-((1-((R)-2-phenylpropanoyl)azetidin-3-yl)amino)-7,8-dihydropteridin-6(5H)-one], the IC50 lay in the range of 1 to 5 µM.

Take `Cc1nc(CC(=O)N2CC(Nc3nc(C)c4c(n3)N(C)[C@@H](C(C)C)C(=O)N4)C2)c(C)s1` [Compound 628, (S)-2-((1-(2-(2,5-dimethylthiazol-4-yl)acetyl)azetidin-3-yl)amino)-7-isopropyl-4,8-dimethyl-7,8-dihydropteridin-6(5H)-one]: the 50% inhibitory concentration (IC50) is not below 5 µM.

Take `Cc1nc(NC2CN(C(=O)Cc3cc(F)cc(F)c3)C2)nc2c1NC(=O)[C@H](C(C)C)N2C` [Compound 629, (S)-2-((1-(2-(3,5-difluorophenyl)acetyl)azetidin-3-yl)amino)-7-isopropyl-4,8-dimethyl-7,8-dihydropteridin-6(5H)-one]: the concentration for half-maximal inhibition (IC50) was less than 0.3 µM.

For the origin of these results see patent publication US20230312587A1, “PTERIDINONE COMPOUNDS AND USES THEREOF” (Vertex Pharmaceutical Incorporated, priority 2018, published 2023).
